Measured values from patent US7244755B2, “Hydroxypropylamines” (Pharmacia & Upjohn Company, priority 2001, dated 2007).

## CCCN(CCC)C(=O)c1cc(C)cc(C(=O)N[C@@H](Cc2cc(F)cc(F)c2)[C@@H](O)CCN)c1 [Example 1, 5-amino-1,2,4,5-tetradeoxy-1-(3,5-difluorophenyl)-2-({3-[(dipropylamino)carbonyl]-5-methylbenzoyl}amino)-L-threo-pentitol]
  melting point: 61 to 72 °C
